Results taken from patent publication US10519177B2, “Heterocyclic compounds and uses thereof” (Plexxikon Inc., priority 2013, dated 2019).
Like-named read-outs stand apart in the source and are kept apart here.

Experiments:
BRD4-BD1 (44-164) = BRD4-BD1 (44-164) (Homo sapiens (Human), UniProt O60885); assay: Alphascreen binding assay BRD4-BD1; conditions: BRD4(1) H4; read-out: Biochemical activity (IC50 μM) BRD4(1) H4
Procedure: Binding of compounds of formula (I) with bromodomain 2, 3 4 was assessed using Alphascreen binding assay. The inhibition of the interaction between bromodomain and its acetylated target protein (Filippakopoulos P et al. 2012) was measured quantitatively using recombinant BRD proteins, an acetylated Histone 4 peptide and AlphaScreen™ technology. In absence of inhibition the BRD protein bound to AlphaScreen™ nickel chelate acceptor beads can interact with the acetylated Histone 4 peptide which is immobilized by the AlphaScreen™ Streptavidin coated beads. This interaction brings donor and acceptor beads in proximity. The close proximity allows the singlet oxygen produced by laser excitation of the donor beads to reach the acceptor beads and generate a luminescence signal.
Recombinant human bromodomains containing the N-terminal bromodomain (BRD2-BD1 (71-194), BRD3-BD1 (24-144) and BRD4-BD1 (44-164)) or dual bromodomains (BRD4-BD12 (1-477), BRD4-BD12 (1-472)) were prepared and purified as described in protein expression and purification session. The peptide is human Histone H41-21K5AcK8AcK12AcK16Ac-Biotin (Anaspec CA, USA).
Protocol for BRD2, BRD3 and BRD4 assay: All components are prepared in buffer composed of 50 mM HEPES pH 7.5, 100 mM NaCl, 0.01% bovine serum albumin (“BSA”), 0.01% Triton X-100, 2 mM dithiothreitol (“DTT”). 7 μL of Bromodomain protein and 7 μL of peptide are added to wells containing 1 μL of various concentrations of test compounds of formula (I) or DMSO vehicle in an Alphaplate (PerkinElmer GA, USA) and incubated for 1 hour at room temperature. 4 μL donor and acceptor bead mixture is then added with final concentrations of 7.5 μg/ml. 30 minutes after bead addition, Alpha signal is read on the Envision spectrometer (λEx 680 nm, λEm 520-620 nm). Final concentrations of bromodomain proteins and peptide are as shown below.
All data was normalized to the mean of 16 high and 16 low control wells on each plate. A four parameter curve fit of the following formula was then applied: Y=a+(b−a)/(1+(x/c)^d) Where ‘a’ is the minimum, ‘b’ is the maximum, ‘c’ is the pIC50 and ‘d’ is the Hill slope. Protein Expression and Purification
Recombinant human bromodomains containing the N-terminal bromodomain (BRD2-BD1 (71-194), BRD3-BD1 (24-144) and BRD4-BD1 (44-164)) or dual bromodomains (BRD4-BD12 (1-477), BRD4-BD12 (1-472)) were expressed in E. coli cells (in a modified pET vector) with an N-terminal six-His tag and purified using a combination of both IMAC (Ni-affinity) and size exclusion chromatography steps.
Recombinant BRD proteins were expressed using the E. coli strain BL21-CodonPlus (DE3) (Agilent Technologies CA, USA). Cells were grown in Terrific Broth (TB) media to an OD600 of 1.2 at 37° C. at which temperature was reduced to 25° C., protein was induced with 1.0 mM ispropyl-β-D-thiogalactopyranoside (“IPTG”) for 12-18 hours and harvested by centrifugation at 8000×g for 20 minutes. Cells were re-suspended in 0.1M K2PO4 pH 8.0, 250 mM NaCl, 10% Glycerol, 0.75% NP-40, 25 mM Imidazole, 5 mM beta-mercaptoethanol (“BME”) with 0.2 mg/ml Lysosyme, 2.0 mM phenylmethanesulfonyl fluoride (“PMSF”), 25 μg/ml DNAse I, incubated on ice for 30 minutes and lyzed with a cell disruptor (MicroFluidics MA, USA). The lysate was clarified by centrifugation at 20,000×g for 2 hours. The protein was captured with Ni-NTA resin (Life Technologies, USA). Contaminating proteins were washed off with 25 mM Tris-HCl pH 8.3, 250 mM NaCl, 12% Glycerol and 50 mM Imidazole. Following 3× wash steps, protein was eluted step wise using a 50 mM HEPES pH 7.5, 500 mM NaCl and 400 mM Imidazole. The protein was further purified using Gel Filtration column 26/600 Superdex 200 (GE Biosciences NJ, USA) in 50 mM HEPES pH 7.5, 250 mM NaCl. The protein was aliquoted and flash-frozen in liquid Nitrogen.

bromodomain = assay: at least one of the bromodomain cell assays of Example 57; assay type: cell-based; conditions: at least one of the bromodomain cell assays described in Example 57; read-out: IC50 in at least one of the bromodomain cell assays
BRD4-BD12 (1-477) = BRD4-BD12 (1-477) (Homo sapiens (Human), UniProt O60885); assay: Alphascreen binding assay BRD4-BD12; conditions: BRD4(1 2) H4; read-out: Biochemical activity (IC50 μM) BRD4(1 2) H4
How it was run: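 First, compound was preincubated 1 h at room temperature with the His-tagged BRD4 protein (BD1 44-164 or tandem BD12 1-477) and acetylated H4 peptide. Next, donor and acceptor beads were added at 7.5 μg/ml final. After 30 min, AlphaScreen emission was recorded.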

MV-4-11 cells = assay: Oncology cell growth assay MV-4-11 (CellTiter Glo); assay type: cell-based; conditions: Homo sapiens, MV4-11, 72 h, read-out: Cell activity (IC50 μM) MV-4-11 3d-Growth
How it was run: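 MV-4-11 AML cells (MLL-AF4), 3000 per well, exposed to 8-point 1:3 compound titration from 10 μM top concentration (0.2% DMSO) for 72 h. Viability by CellTiter Glo luminescence, normalized to DMSO controls; pIC50 from four-parameter curve fit.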

Compound | IC50 (BRD4-BD1 (44-164)) | IC50 (bromodomain) | IC50 (BRD4-BD12 (1-477)) | IC50 (MV-4-11 cells; MV-4-11, 3d growth) | IC50 (MV-4-11 cells)
C=CCn1cc(-c2cn(S(=O)(=O)c3ccccc3)c3cc(-c4c(C)noc4C)cnc23)cn1 [P-0126, 4-[3-(1-allylpyrazol-4-yl)-1-(benzenesulfonyl)pyrrolo[3,2-b]pyridin-6-yl]-3,5-dimethyl-isoxazole] | < 1 µM |  |  |  | 
Cc1noc(C)c1-c1cnc2c(-c3cnc(C4CC4)nc3)cn(S(=O)(=O)C3CCCC3)c2c1 [P-0103, 4-[1-cyclopentyl-sulfonyl-3-(2-cyclopropylpyrimidin-5-yl)pyrrolo[3,2-b]pyridin-6-yl]-3,5-dimethyl-isoxazole] | < 1 µM |  |  |  | 
CCc1[nH]c2ncc(-c3c(C)noc3C)cc2c1C(O)C1CCC(F)(F)CC1 (stereo not drawn) [P-0044, (4,4-difluorocyclohexyl)-[5-(3,5-dimethylisoxazol-4-yl)-2-ethyl-1H-pyrrolo[2,3-b]pyridin-3-yl]methanol] | < 1 µM |  |  |  | 
Cc1noc(C)c1-c1cnc2[nH]c(C)c(C(O)c3cccnc3)c2c1 (stereo not drawn) [P-0009, [5-(3,5-dimethylisoxazol-4-yl)-2-methyl-1H-pyrrolo[2,3-b]pyridin-3-yl]-(3-pyridyl)methanol] | < 1 µM |  |  |  | 
CCc1[nH]c2ncc(-c3c(C)noc3C)cc2c1CC1CCC(F)(F)CC1 [P-0051, 4-[3-[(4,4-difluoro-cyclohexyl)methyl]-2-ethyl-1H-pyrrolo[2,3-b]pyridin-5-yl]-3,5-dimethyl-isoxazole] | < 1 µM |  |  |  | 
CCn1cc(-c2cn(C(C)c3ccccc3)c3cc(-c4c(C)noc4C)cnc23)cn1 (stereo not drawn) [P-0200, 4-[3-(1-ethylpyrazol-4-yl)-1-(1-phenylethyl)pyrrolo[3,2-b]pyridin-6-yl]-3,5-dimethyl-isoxazole] | < 1 µM |  |  |  | 
CNC(=O)Nc1ccc(-c2cn([C@@H](C)c3ccccn3)c3cc(-c4c(C)noc4C)cnc23)cc1 [P-0563, 1-[4-[6-(3,5-dimethylisoxazol-4-yl)-1-[(1S)-1-(2-pyridyl)ethyl]pyrrolo[3,2-b]pyridin-3-yl]phenyl]-3-methyl-urea] |  | < 10000 nM | < 1 µM | < 1 µM | 
[2H]C([2H])(O)c1ccc(-c2cn(CC3CCC(F)(F)CC3)c3cc(-c4c(C)noc4C)cnc23)cc1 [P-0571, dideutrio-[4-[1-[(4,4-difluorocyclohexyl)methyl]-6-(3,5-dimethylisoxazol-4-yl)pyrrolo[3,2-b]pyridin-3-yl]phenyl]methanol] |  | < 10000 nM | < 1 µM | < 1 µM | 
Cc1noc(C)c1-c1cnc2c(-c3ccc(C(=O)O)s3)cn(CC3CCC(F)(F)CC3)c2c1 [P-0485, 5-[1-[(4,4-difluorocyclohexyl)methyl]-6-(3,5-dimethylisoxazol-4-yl)pyrrolo[3,2-b]pyridin-3-yl]thiophene-2-carboxylic acid] |  | < 10000 nM | < 1 µM | < 1 µM | 
Cc1noc(C)c1-c1cnc2c(-c3ccc(C(=O)O)cc3F)cn(CC3CCC(F)(F)CC3)c2c1 [P-0417, 4-[1-[(4,4-difluorocyclohexyl)methyl]-6-(3,5-dimethylisoxazol-4-yl)pyrrolo[3,2-b]pyridin-3-yl]-3-fluoro-benzoic acid] |  | < 10000 nM | < 1 µM |  | < 1 µM
Cc1noc(C)c1-c1cnc2c(-c3ccc(C(=O)O)cc3)cn([C@H](C)c3ccccc3)c2c1 [P-0583, 4-[6-(3,5-dimethylisoxazol-4-yl)-1-[(1R)-1-phenylethyl]pyrrolo[3,2-b]pyridin-3-yl]benzoic acid] |  | < 10000 nM | < 1 µM | < 1 µM | 
COC(=O)c1ccc(-c2cn(CC3CCCCCCC3)c3cc(-c4c(C)noc4C)cnc23)cc1 [P-0578, methyl 4-[1-(cyclooctylmethyl)-6-(3,5-dimethylisoxazol-4-yl)pyrrolo[3,2-b]pyridin-3-yl]benzoate] |  | < 10000 nM | < 1 µM | 1 to 10 µM | 
Cc1noc(C)c1-c1cnc2c(I)cn(CC3CCC(F)(F)CC3)c2c1 [P-0250, 4-[1-[(4,4-difluorocyclohexyl)methyl]-3-iodo-pyrrolo[3,2-b]pyridin-6-yl]-3,5-dimethyl-isoxazole] |  | < 10000 nM | < 1 µM |  | < 1 µM
[2H]C([2H])(C1CCC(F)(F)CC1)n1cc(-c2ccc(=O)n(C)c2)c2ncc(-c3c(C)noc3C)cc21 [P-0345, 5-[1-[dideuterio-(4,4-difluorocyclohexyl)methyl]-6-(3,5-dimethylisoxazol-4-yl)pyrrolo[3,2-b]pyridin-3-yl]-1-methyl-pyridin-2-one] |  | < 10000 nM | < 1 µM |  | < 1 µM
[2H]C([2H])(C1CCC(F)(F)CC1)n1cc(-c2cnc(N)cn2)c2ncc(-c3c(C)noc3C)cc21 [P-0364, 5-[1-[dideuterio-(4,4-difluorocyclohexyl)methyl]-6-(3,5-dimethylisoxazol-4-yl)pyrrolo[3,2-b]pyridin-3-yl]pyrazin-2-amine] |  | < 10000 nM | < 1 µM |  | < 1 µM
Cc1noc(C)c1-c1cnc2c(-c3ccc(NC(N)=O)cc3)cn(CC3(F)CCCCC3)c2c1 [P-0521, [4-[6-(3,5-dimethylisoxazol-4-yl)-1-[(1-fluorocyclohexyl)methyl]pyrrolo[3,2-b]pyridin-3-yl]phenyl]urea] |  | < 10000 nM | < 1 µM | < 1 µM | 
Cc1noc(C)c1-c1cnc2c(-c3ccc(CC(=O)O)cc3)cn(CC3CCCC3)c2c1 [P-0591, 2-[4-[1-(cyclopentylmethyl)-6-(3,5-dimethylisoxazol-4-yl)pyrrolo[3,2-b]pyridin-3-yl]phenyl]acetic acid] |  | < 10000 nM | < 1 µM | < 1 µM | 
[2H]C([2H])(C1CCC(F)(F)CC1)n1cc(-c2ccc(N)nc2)c2ncc(-c3c(C)noc3C)cc21 [P-0347, 5-[1-[dideuterio-(4,4-difluorocyclohexyl)methyl]-6-(3,5-dimethylisoxazol-4-yl)pyrrolo[3,2-b]pyridin-3-yl]pyridin-2-amine] |  | < 10000 nM | < 1 µM |  | < 1 µM
COC(=O)c1ccc(-c2cn(Cc3cccnn3)c3cc(-c4c(C)noc4C)cnc23)cc1 [P-0539, methyl 4-[6-(3,5-dimethylisoxazol-4-yl)-1-(pyridazin-3-ylmethyl)pyrrolo[3,2-b]pyridin-3-yl]benzoate] |  | < 10000 nM | < 1 µM | < 1 µM | 
Cc1noc(C)c1-c1cnc2c(-c3ccc([N+](=O)[O-])nc3)cn(CC3CCCCC3)c2c1 [P-0710, 4-[1-(cyclohexylmethyl)-3-(6-nitro-3-pyridyl)pyrrolo[3,2-b]pyridin-6-yl]-3,5-dimethyl-isoxazole] |  | < 10000 nM | < 1 µM | < 1 µM | 
